Reference: US4937232A, “Inhibition of protein kinase C by long-chain bases” (priority 1988, dated 1990)
Like-named read-outs stand apart in the source and are kept apart here. Values belong to the compound of their own block, whether it stands above or below them.

What was measured:
human neutrophils [1] = test: Cytoplasmic calcium concentration (Quin2); type: cell-based; details: Sphinganine (30 μM) pretreatment
Protocol: Intracellular calcium was measured by the Quin2 method. Briefly, Quin2/acetoxymethylester (50 μM) was preincubated with 1×10^8cell/ml for 20 min. at 37°, prior to 10-fold dilution and continuation of incubation for an additional 40-60 minutes. Cells were reisolated by centrifugation to remove extracellular fluorophore, and fluorescence measurement and calibration were carried out as described by Tsien et al in J. Cell. Biol. 94, 325-334, 1982, using a Perkin-Elmer MPF-44B fluorescence spectrophotometer. Buffer consisted of 140 mM NaCl, 5 mM KCl, 1 mM Na2 PO4, 5.5 mM glucose, 0.5 mM MgSO4, 20 mM Hepes, and 1 mM CaCl2.

[2] = Neutrophil viability (Trypan Blue exclusion, LDH release); type: cell-based; details: human, neutrophils, 50 μM sphinganine, 1.2×10^7 cells/ml
Protocol: Cell viability was assessed by two criteria: Trypan Blue exclusion and release of the cytosolic enzyme, lactate dehydrogenase (LDH). LDH activity was monitored by following the oxidation of NADH at 340 nm. […] Trypan Blue exclusion was determined microscopically.

human neutrophils [3] = test: Superoxide production by neutrophils (cytochrome c reduction); type: cell-based; details: Neutrophil, approximately 5×10^5 cells/ml, all activators, read-out: concentration for 50% inhibition of superoxide production
Protocol: Superoxide production by cells was quantitated from superoxide-mediated reduction of cytochrome c, monitored as an increase in absorbance at 550 nm and an extinction coefficient at 21,000 M^-1 cm^-1. Measurements were carried out at 37° C. using approximately 5×10^5 neutrophils per ml, stirred continuously. The cells were allowed to equilibrate several minutes prior to the addition of effectors. Conditions for individual experiments are described in figure legends and tables. Controls utilizing added superoxide dismutase verified that the cytochrome c reduction was mediated by superoxide.

human neutrophils [4] = test: [32P]-phosphate incorporation into TCA-precipitable material of neutrophils; type: cell-based
Protocol: Neutrophils (1.4×10^8 cells) were preincubated in with 0.5 mCi Na2 H^32 PO4 in buffer containing […] NaCl, 5.56 mM glucose, 10 mM Hepes, and 0.33 mM CaCl2 for a total of 1 hr at 37° C. in a shaking waterbath. Excess unbound counts were removed by centrifugation and resuspension, repeated five times. The cells were then divided into 4 treatment groups (see RESULTS below) containing approximately 3.5×10^7 cells each. All groups were incubated at 37° C. in a shaking waterbath for the same total time. Some samples were incubated 10 min. with sphinganine (40 μM) prior to addition of 1 μM PMA (final concentration), with which they were incubated for an additional 15 min. The reaction was stopped by addition of an equal volume of boiling SDS dissociation buffer (9% SDS, 1% mercaptoethanol, 15% glycerol, 30 mM Tris, pH 7.8). The samples were run on a 12% SDS-polyacrylamide gel using the method of Rudolph and Krueger (Adv. Cyclic Nucleotide Res. 101, 107-133, 1979). The gels were dried using a Bio-Rad model 2400 Gel Slab Dryer. Autoradiography was performed on the dried gels using Kodak X-omat X-ray film and Dupont Cronex intensifying screens. The gels were exposed for 12 hrs at -70° C.
Alternatively, neutrophils were preincubated as described above using 0.1 mCi of ^32 P labeled phosphate. The cells were broken by 5 min. of sonication using an Ultramet III waterbath sonicator, and 5% (final concentration) trichloroacetic acid was added to each sample. […] The precipitate was filtered and washed extensively using an Amicon filtration system and counted using a Beckman LS7000 scintillation counter.

HL-60 cells = test: Morphology and marker enzymes (ANA esterase, acid phosphatase) of HL-60 cells on day 3; type: cell-based, human; details: 3 days
Source text: Expression of most other signs of HL-60 cell differentiation requires longer time periods after treatment with PMA. For these experiments, the cells were examined on day 3 for adherence and acid phosphatase activity (Table IV) and morphology and the marker enzymes alpha-naptholacetate (ANA) esterase and acid phosphatase (Table V).

[5] = tested on: protein kinase C-induced phosphorylation of the 40 KDa polypeptide; test: 40K (40 kDa) protein phosphorylation in human platelets; type: cell-based
Protocol: They were then suspended in modified Tyrode's buffer to a concentration of 2.5×10^8 platelets/ml.
^32 Pi at 0.2 mCi/ml was added to the platelet suspension and labelling was allowed to proceed for 75 minutes at 37° C., after which the platelets were pelleted at 600×g for 10 minutes and resuspended in Tyrode's buffer to the same concentration. They were then aliquoted in Eppendorf microfuge tubes and preincubated at 37° C. for 5 minutes with the varying concentrations of sphingosine. Platelets were then stimulated with either 5 μM dioctanoylglycerol (added as an ethanol solution with the final concentration of ethanol 0.5%), 10 μM TPA, or 1 unit/ml thrombin. The reactions were stopped after 30 seconds by the addition of an equal volume of 2× sample buffer, and the samples were then boiled for 3 minutes. […] Gels were subsequently fixed in water/methanol/acetic acid (60:30:10), dried, and autoradiographed.

protein kinase M = test: Activity of the catalytic domain (protein kinase M); type: biochemical, rat
Protocol: Under these conditions, the bulk concentration of PS was 260 μM and diC18:1 was 86 μM. Therefore, 50% inhibition (100 μM) occurred on a molar basis equivalent to [diC18:1 ] or to 0.4 of [PS]. The potency of sphingosine inhibition was markedly affected by the number of Triton X-100 mixed micelles containing 7 mol % PS and 1 mol % diC18:1present in the assay (FIG. 11A). Thus, the effect of sphingosine was subject to surface dilution. When the data are expressed as mol %, (sphingosine:Triton X-100), sphingosine inhibition at four different levels of Triton X-100 mixed micelles (containing PS and diC18:1) was identical (FIG. 11B) implying that it is the number of sphingosine molecules present in each mixed micelle that determines the potency and not the absolute concentration. For surface active amphipathic molecules, the expression of inhibitor potencies must be relative to the amount of surface (micelles in this case) as bulk concentrations are misleading. […] To test this hypothesis, the catalytic domain (protein kinase M) was generated by proteolysis of protein kinase C^2. The activity of this catalytic domain which is independent of Ca^2+, phospholipid and DAG/phorbol esters was not inhibited by sphingosine (FIG. 10).
^2 The catalytic domain was generated by trypsin treatment of purified protein kinase C; and purified by Ultrogel AcA-44 molecular sieve chromatography. […]

IC50 (human neutrophils [3]): ~1000 nM
SMILES: CCCCCCCCCCCCCCC[C@@H](O)[C@@H](N)CO (relative stereo) [Sphinganine, erythro-dihydrosphingosine]
Calcium, Resting (human neutrophils [1]): 0.20 ± 0.02 µM
Calcium, FMLP-Peak (human neutrophils [1]; 1 μM FMLP): 0.66 ± 0.14 µM
viability at 50 µM ([2]; read-out: cellular LDH retained): > 96%
viability at 50 µM ([2]; read-out: viability by Trypan Blue exclusion): > 95%
[32P]-phosphate incorporation into TCA-precipitable material (human neutrophils [4]; PMA (1 μM) plus Sa (25 μM)): 2845 COUNTS PER MINUTE
[32P]-phosphate incorporation into TCA-precipitable material (human neutrophils [4]; Sa (25 μM)): 2506 COUNTS PER MINUTE
Acid phosphatase (HL-60 cells; 8 nM PMA, adherent cells, 1 μM sphinganine): 0.64 nmol/h/105 cells
Acid phosphatase (HL-60 cells; 8 nM PMA, adherent cells, 2.5 μM sphinganine): 0.60 nmol/h/105 cells
Acid phosphatase (HL-60 cells; 8 nM PMA, adherent cells, 5 μM sphinganine): 0.64 nmol/h/105 cells
Acid phosphatase (HL-60 cells; 8 nM PMA, suspended cells, 1 μM sphinganine): 0.19 nmol/h/105 cells
Acid phosphatase (HL-60 cells; 8 nM PMA, suspended cells, 2.5 μM sphinganine): 0.12 nmol/h/105 cells
Acid phosphatase (HL-60 cells; 8 nM PMA, suspended cells, 5 μM sphinganine): 0.06 nmol/h/105 cells
Acid phosphatase (HL-60 cells; No PMA, suspended cells, 1 μM sphinganine): 0.25 nmol/h/105 cells
Acid phosphatase (HL-60 cells; No PMA, suspended cells, 2.5 μM sphinganine): 0.22 nmol/h/105 cells
Acid phosphatase (HL-60 cells; No PMA, suspended cells, 5 μM sphinganine): 0.16 nmol/h/105 cells

SMILES: CCCCCCCCCCCCC/C=C/[C@@H](O)[C@@H](N)CO [sphingosine]
inhibition of thrombin-induced 40K phosphorylation ([5]; 25 μM sphingosine): nearly complete inhibition
inhibition of thrombin-induced 40K phosphorylation ([5]; concentrations as low as 10 μM): Partial inhibition
inhibition of TPA and diC8-induced 40K phosphorylation ([5]; data not shown): inhibited
sphingosine required for complete inhibition (mol % sphingosine:phospholipids) ([5]; platelet 40K phosphorylation, similar to in vitro inhibition of protein kinase C): 3-5 mol %
inhibition of the catalytic domain (protein kinase M) (protein kinase M): not inhibited
